From patent US11505523B2, “HDAC8 inhibitors for treating cancer” (City of Hope, priority 2013, dated 2022)

Key:
[1] = biological target: HDAC1 (Homo sapiens (Human), UniProt Q13547); assay: Inhibition of purified HDAC1; format: biochemical; details: class I; read-out: HDAC 1 IC50
[2] = test system: MV4-11 cells; assay: Proliferation of MV4-11 cells, luminescent cell viability assay; format: cell-based, human; details: 48-hr, luminescent cell viability assay; read-out: MV4-11 Proliferation IC50
[3] = test system: KG1a cells; assay: Survival of KG1a AML cells by Annexin V labeling; format: cell-based, human; details: 48 h, result in words
[4] = test system: normal CD34^+ cells; assay: Apoptosis/cytotoxicity in normal CD34+ cells
Excerpt: Given that the frequency of TP53 mutation is relatively low in AML, altered post-translational modification by HDAC8 could represent an alternative p53-inactivating mechanism and contribute to drug resistance of AML stem cells. We first examined the expression of HDAC8 in CD34^+ stem and progenitor cells isolated from patients with inv(16)^+ AML compared to normal mobilized peripheral blood stem cells (PBSC).

[5] = test system: Ac-p53 and p53 in MV4-11 cells; assay: Western blot of Ac-p53 and p53 in MV4-11 cells; format: cell-based, human; details: 6-hr, increased HDAC8i concentration
Description: FIGS. 21A-21D. HDAC8 inhibition activates p53 and induces p53-dependent apoptosis in human AML cells. […] FIG. 21B: Western blot analysis of Ac-p53, total p53, Ac-H3, Ac-H4, β-actin in MV4-11 cells treated with indicated doses of HDAC8i for 6 h. FIG. 21C: Fold change in mRNA levels of p53 targets after treatment with PCI-48012 ([…]) for 16 h. FIG. 21D: Western blot analysis of p53, β-actin in MV4-11 cells transduced with control or sh-p53 (top). Relative survival of control or sh-p53 transduced MV4-11 cells treated with HDAC8i (bottom).

Sequence of HDAC1 (Q13547 whole entry, species assumed): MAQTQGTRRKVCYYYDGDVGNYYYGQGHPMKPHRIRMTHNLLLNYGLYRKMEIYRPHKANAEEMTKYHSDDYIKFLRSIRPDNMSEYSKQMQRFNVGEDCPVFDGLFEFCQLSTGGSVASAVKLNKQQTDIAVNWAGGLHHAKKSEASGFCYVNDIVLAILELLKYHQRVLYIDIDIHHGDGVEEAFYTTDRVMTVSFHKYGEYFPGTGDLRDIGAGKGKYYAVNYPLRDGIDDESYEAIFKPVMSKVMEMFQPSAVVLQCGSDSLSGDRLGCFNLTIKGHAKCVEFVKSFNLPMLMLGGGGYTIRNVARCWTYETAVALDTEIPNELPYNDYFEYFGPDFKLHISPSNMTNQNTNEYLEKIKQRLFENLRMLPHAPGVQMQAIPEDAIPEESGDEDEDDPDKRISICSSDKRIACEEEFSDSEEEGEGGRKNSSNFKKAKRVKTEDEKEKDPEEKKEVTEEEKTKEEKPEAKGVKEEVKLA

COc1ccc(/C=C/C(=O)NO)c(-c2ccc(-c3ccccc3)cc2)c1 [Compound 22d, (E)-N-Hydroxy-4-methoxy-2-(biphenyl-4-yl)cinnamide]
IC50 [1]: 3 ± 0.2 nM | IC50 [2]: 2480 nM | survival of KG1a cells [3]: decreases with increased HDAC8i concentration | difference between CD34+ cells from PBSC and CB ([4]; based on cell origin): no significant difference | cytotoxicity in normal CD34+ cells ([4]; higher dose (40 μM), 48 h): Modest cytotoxicity | Ac-p53 and p53 signal by western blot [5]: greater signal for Ac-p53 and p53
